Reference: ChEMBL document CHEMBL1136041, “Capped dipeptide alpha-ketoacid inhibitors of the HCV NS3 protease” (Bioorg Med Chem Lett, 2002)

Target: Hepatitis C virus serine protease, NS3/NS4A (Hepatitis C virus, UniProt A3EZI9+D2K2A8)
Experiment: Inhibitory concentration evaluated against NS3/4A protease.
Format: protein-complex assay, Hepacivirus hominis

Chain of Hepatitis C virus serine protease, NS3/NS4A (D2K2A8 whole entry): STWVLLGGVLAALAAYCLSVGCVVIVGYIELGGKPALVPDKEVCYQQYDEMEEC
Chain of Hepatitis C virus serine protease, NS3/NS4A (A3EZI9 whole entry): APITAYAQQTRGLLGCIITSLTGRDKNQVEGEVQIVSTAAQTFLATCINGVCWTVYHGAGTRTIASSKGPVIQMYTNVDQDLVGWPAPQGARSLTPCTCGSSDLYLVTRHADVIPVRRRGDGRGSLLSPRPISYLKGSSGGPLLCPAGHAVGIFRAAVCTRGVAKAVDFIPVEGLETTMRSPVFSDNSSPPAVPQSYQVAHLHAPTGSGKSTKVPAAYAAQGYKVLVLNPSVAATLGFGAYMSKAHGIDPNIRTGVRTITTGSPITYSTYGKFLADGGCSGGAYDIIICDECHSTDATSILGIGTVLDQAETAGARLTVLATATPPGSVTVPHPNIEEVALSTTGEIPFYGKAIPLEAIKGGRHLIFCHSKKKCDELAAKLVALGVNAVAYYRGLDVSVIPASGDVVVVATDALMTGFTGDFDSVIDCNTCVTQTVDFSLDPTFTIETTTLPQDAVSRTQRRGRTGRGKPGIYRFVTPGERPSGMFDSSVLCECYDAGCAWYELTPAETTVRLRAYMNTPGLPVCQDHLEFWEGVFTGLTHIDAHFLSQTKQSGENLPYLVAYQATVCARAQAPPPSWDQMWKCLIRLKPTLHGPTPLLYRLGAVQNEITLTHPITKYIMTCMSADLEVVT

Compound | IC50 [µM]
CC(C)C[C@H](NC(=O)Cn1nc(-c2ccccc2)c2ccccc2c1=O)C(=O)N[C@@H](CC(F)F)C(=O)C(=O)O | > 200
CC(C)C[C@H](NC(=O)Cn1c(-c2ccccc2)nc2ccccc21)C(=O)N[C@@H](CC(F)F)C(=O)C(=O)O | > 200
CC(C)C[C@H](NC(=O)[C@H](O)c1ccccc1Cl)C(=O)N[C@@H](CC(F)F)C(=O)C(=O)O | 41
CC(C)C[C@H](NC(=O)C(Sc1ccccc1)c1ccccc1)C(=O)N[C@@H](CC(F)F)C(=O)C(=O)O (some centres not stated) | 7
CC(C)C[C@H](NC(=O)CC(c1ccccc1)c1ccccc1)C(=O)N[C@@H](CC(F)F)C(=O)C(=O)O | > 200
CC(C)C[C@H](NC(=O)[C@H](O)c1ccc(Cl)cc1)C(=O)N[C@@H](CC(F)F)C(=O)C(=O)O | 13
CC(C)C[C@H](NC(=O)[C@H](O)c1cccs1)C(=O)N[C@@H](CC(F)F)C(=O)C(=O)O | 18
COc1ccc(C(=O)N[C@@H](CC(C)C)C(=O)N[C@@H](CC(F)F)C(=O)C(=O)O)c(OC)c1OC | > 200
CC(C)C[C@H](NC(=O)C(Cc1ccccc1)c1ccccc1)C(=O)N[C@@H](CC(F)F)C(=O)C(=O)O (some centres not stated) | > 30
COc1ccc(C(Oc2ccccc2)C(=O)N[C@@H](CC(C)C)C(=O)N[C@@H](CC(F)F)C(=O)C(=O)O)cc1 (some centres not stated) | 18
CC(C)C[C@H](NC(=O)[C@@H](O)c1ccccc1)C(=O)N[C@@H](CC(F)F)C(=O)C(=O)O | > 100
CC(C)C[C@H](NC(=O)[C@@H](NC(=O)OC(C)(C)C)C1CCCC1)C(=O)N[C@@H](CC(F)F)C(=O)C(=O)O | 0.38
CC(C)C[C@H](NC(=O)[C@H](O)c1ccc(C(F)(F)F)cc1)C(=O)N[C@@H](CC(F)F)C(=O)C(=O)O | 28
COc1ccc([C@@H](O)C(=O)N[C@@H](CC(C)C)C(=O)N[C@@H](CC(F)F)C(=O)C(=O)O)cc1 | 13
CC(C)C[C@H](NC(=O)c1cccc(Oc2ccccc2)c1)C(=O)N[C@@H](CC(F)F)C(=O)C(=O)O | > 200
CC(C)C[C@H](NC(=O)[C@H](O)C1CCCCC1)C(=O)N[C@@H](CC(F)F)C(=O)C(=O)O | 7
CC(C)C[C@H](NC(=O)[C@H](O)c1ccccc1)C(=O)N[C@@H](CC(F)F)C(=O)C(=O)O | 3
